# Results from patent publication US20070190582A1, “Platelet surface PF4 antigenic complexes as a diagnostic indicator in heparin-induced thrombocytopenia” (priority 2005, published 2007).
# T1: hPF4 bound to surface GAGs of murine platelets (Homo sapiens, UniProt P02776)
# T1 construct: made in house; host or cells: E. coli BL21DE30 pLysS, pT7-7 plasmid
# T1 sequence (P02776 32-101): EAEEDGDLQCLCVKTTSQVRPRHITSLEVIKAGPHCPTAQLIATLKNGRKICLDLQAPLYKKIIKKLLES
# Columns and labels:
# [1] = tested on: hPF4/FcγRIIA double transgenic mice given KKO; experiment: Therapeutic intervention in the murine HIT model (platelet counts after KKO); assay type: in vivo, mouse
# Procedure: Transgenic mice expressing different amounts of hPF4 mRNA per platelet have been described previously (26). Three lines bearing 1, 6 and 22 copy numbers of the human PF4 gene/haplotype were used. […] Transgenic mice expressing FcγRIIA were generously provided by Steven McKenzie, Thomas Jefferson University (30) and crossbred with these hPF4 mice. All murine lines were backcrossed onto the C57BL/6J background>8 times. Genomic makeup of mice was determined by PCR analysis using oligonucleotide primers described previously (26,30). Controls included littermates transgenic for hPF4 or FcγRIIA only. Mice were 6-10 weeks of age at the time of study. Total platelet hPF4 levels in the various transgenic hPF4 lines were determined using an Asserachrom PF4 kit (Diagnostica Stago) as per the manufacturer using recombinant hPF4 as the standard. Mouse blood was obtained by retroorbital puncture. The plate was read at 450 nm in a THERMOmax microplate reader (Molecular Devices). Measurements of surface KKO binding in vivo in WT and the hPF4 transgenic mice were determined after IV injection of 20 μg of FITC-labeled KKO in 200 μL of sterile PBS via the tail vein followed by withdrawal of 50 μL of blood from the retroorbital plexus 10 min later. The blood was coimmunostained for CD41, and KKO binding to CD41-positive cells was estimated by flow cytometry. In other studies, KKO was injected intraperitoneally (IP) in a final volume of 200 μL diluted with sterile PBS. Porcine heparin (200 μL of 100 U/mL stock; Abbott Laboratories) was injected subcutaneously (SQ) in a subgroup of studied animals beginning at 24 hrs for 4 consecutive days. Complete blood counts were measured in 50 μl of whole blood obtained by retroorbital puncture into Safe-T-Fill® minicapillary blood collection tubes (Kabe Labortechnik). Platelets were enumerated using an automatic cell counter (HEMAVET, Drew Scientific). In the therapeutic intervention studies, either porcine heparin (100 U/kg) or protamine sulfate (2 mg/kg) were injected IV over 2 mins. KKO (200 μg) was given IP 1 hr later (zero time point). Injection of heparin or protamine was repeated 21 and 45 hr later. Blood counts were determined as above.
# Platelet counts between groups were compared using the Student's t-test. Statistical analyses were performed using Graph Pad Prism (Graphpad Software). Differences were considered significant at a p value of <0.05.
# [2] = molecular target: T1, hPF4 bound to surface GAGs of murine platelets; experiment: KKO binding to murine platelets in the presence of hPF4 (flow cytometry); design: species or system mouse; details: mPF4 null platelets, enzyme 0-5 U/ml, 37° C., 30 min
# Procedure: Studies were performed using human platelets or platelets from WT and transgenic mice (see below for the description of the mice). Human blood was collected after informed consent from healthy, aspirin-free volunteers in acid citrate dextrose (ACD, pH 4.5, 10:1, vol/vol) under a protocol approved by the Institutional Review Board for Studies involving Human Subjects of the Children's Hospital of Philadelphia. All studies involving mice were approved by the same Institution's Institute Animal Care and Use Committee. Blood was centrifuged at 200 g for 15 min at room temperature (RT) to generate platelet-rich plasma (PRP). PGE1 (final concentration 1 μg/mL, Sigma) was added to the PRP to prevent spontaneous platelet activation. […] Total immunodetectable platelet hPF4 was determined using murine platelets completely deficient in murine PF4 (mPF4 null (29)). […] Autoradiograpic bands over the linear range of exposure were analyzed on a UMAX Vista-58 scanner, and the data analyzed by developing a histogram of the calculated density using the NIH program ImageJ (rsb.info.nih.gov). Total surface PF4 binding was also detected using mPF4 null platelets after paraformaldehyde crosslinking, as above. […] FITC-labeled KKO (50 μg/mL) was added for 15 min, the sample was diluted 1/10 with Tyrode's buffer and antibody binding was measured by flow cytometry as above. […]
# [3] = hPF4Mid/FcγRIIA+ mice, heparin 100 U/kg or protamine sulfate 2 mg/kg IV 1 hr before 200 μg KKO IP
Molecule,"Effect on KKO-induced thrombocytopenia ([1]; hPF4High/FcγRIIA+ mice, heparin 100 U/kg or protamine sulfate 2 mg/kg IV)","Platelet counts versus mice receiving antibody alone at 24 and 48 hr ([1]; hPF4High/FcγRIIA+ mice, protamine sulfate 2 mg/kg IV)","Effect on KKO-induced thrombocytopenia at 3 hr [1, 3]","Effect on KKO-induced thrombocytopenia at 24 hr [1, 3]","Platelet counts after repeat doses on the second and third days ([1]; hPF4Mid/FcγRIIA+ mice, repeat at 21 and 45 hr)",Effect of pretreating platelets on KKO binding [2]
protamine sulfate,retained its efficacy,significantly higher,prevented thrombocytopenia,decreased the severity of thrombocytopenia,maintained platelet counts above the level in mice that had received KKO alone,–
"heparinase 1: heparinase I (Sigma), enzyme used to pretreat platelets (protein, UniProt Q05819 22-384, looked up) Heparin lyase I: QQKKSGNIPYRVNVQADSAKQKAIIDNKWVAVGINKPYALQYDDKLRFNGKPSYRFELKAEDNSLEGYAAGETKGRTELSYSYATTNDFKKFPPSVYQNAQKLKTVYHYGKGICEQGSSRSYTFSVYIPSSFPDNATTIFAQWHGAPSRTLVATPEGEIKTLSIEEFLALYDRMIFKKNIAHDKVEKKDKDGKITYVAGKPNGWKVEQGGYPTLAFGFSKGYFYIKANSDRQWLTDKADRNNANPENSEVMKPYSSEYKTSTIAYKMPFAQFPKDCWITFDVAIDWTKYGKEANTILKPGKLDVMMTYTKNKKPQKAHIVNQQEILIGRNDDDGYYFKFGIYRVGNSTVPVTYNLSGYSETAR",–,–,–,–,–,"not heparinase 1 alone (data not shown), decreased KKO binding"
